The text below walks through data of patent US20230265151A1, “GIP/GLP1 CO-AGONIST COMPOUNDS” (priority 2020, published 2023).

Holding throughout (format): cell-based
The target in one test is hGLP-1R (Homo sapiens, UniProt P43220). Nature of the test: Functional cAMP formation (HTRF) in HEK-293 clonal cells expressing hGLP-1R, 0.1% bovine casein, without or with 1.0% human serum albumin. Particulars: for Emax: percent of maximal response to GLP-1(7-36)NH2; for EC50: geometric mean. Also on record: expressed in transfected cells. A digest of the protocol:
(§1)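 Cells were stimulated with peptide for 30 min at 37° C, then intracellular cAMP was measured by competitive HTRF (665/620 nm ratio) and converted to nM using a cAMP standard curve. Relative EC50 and Emax came from four-parameter logistic fits of percent maximal response against peptide concentration.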
On the technique in general: Changes in cAMP serve as a functional read-out for many G protein-coupled receptors.

For a further test, the target named is T1, hGIPR (Homo sapiens, UniProt P48546).
T1 construct: expressed in transfected cells
T1 sequence (P48546 22-466): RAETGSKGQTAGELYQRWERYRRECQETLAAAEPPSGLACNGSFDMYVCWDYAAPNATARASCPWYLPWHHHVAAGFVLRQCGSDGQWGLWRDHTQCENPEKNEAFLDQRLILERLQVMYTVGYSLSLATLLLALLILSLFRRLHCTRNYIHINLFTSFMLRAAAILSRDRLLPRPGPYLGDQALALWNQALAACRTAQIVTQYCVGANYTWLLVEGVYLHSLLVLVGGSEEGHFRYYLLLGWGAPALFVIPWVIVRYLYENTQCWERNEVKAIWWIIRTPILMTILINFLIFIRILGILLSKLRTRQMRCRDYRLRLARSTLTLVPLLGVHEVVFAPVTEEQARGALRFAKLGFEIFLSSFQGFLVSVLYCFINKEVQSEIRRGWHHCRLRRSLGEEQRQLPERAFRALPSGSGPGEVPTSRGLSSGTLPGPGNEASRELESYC
Nature of the test: Functional cAMP formation (HTRF) in HEK-293 clonal cells expressing hGIPR, 0.1% bovine casein, without or with 1.0% human serum albumin. To be noted: for Emax: percent of maximal response to GIP(1-42)NH2; for EC50: cAMP. A digest of the protocol: as §1

For the next test, the target named is T2, hGCGR (Homo sapiens, UniProt P47871).
T2 construct: expressed in transfected cells
The test can be described thus: Functional cAMP formation (HTRF) in HEK-293 clonal cells expressing hGCGR, 0.1% bovine casein, without or with 1.0% human serum albumin. To be noted: 37° C. A digest of the protocol:
as §1

Setting [1] is: HEK293, cAMP, 37° C., 0.1% bovine casein, arithmetic mean, read-out: hGLP-1R Emax, % ± SEM.
Where [2] appears, read: 37° C., 0.1% bovine casein (no human serum albumin), geometric mean, read-out: hGIPR EC50, nM (SEM, n).
The mark [3] stands for this setting: cAMP, 0.1% bovine casein (no human serum albumin), geometric mean, read-out: hGCGR EC50, nM (SEM, n).

Like-named read-outs stand apart in the source and are kept apart here. *1 amine or outer side, *2 acyl side, *3 side chain or, on linkers, in order; H or OH if unused. Where a SMILES comes first, the peptide text is derived from it. Side-chain parts run from the residue outwards. [ ]: non-standard residue; d: D form. The star is where a group is joined. αMePhe(2-F) = C[C@](N)(Cc1ccccc1F)C(=O)O; γGlu = O=C(O)[C@H](CCC(=O)[*:2])N[*:1]; C14 diacid = O=C(O)CCCCCCCCCCCCC(=O)*; αMeY = C[C@](N)(Cc1ccc(O)cc1)C(=O)O; αMeF = C[C@](N)(Cc1ccccc1)C(=O)O; 4Pal = N[C@@H](Cc1ccncc1)C(=O)O; αMeL = CC(C)C[C@](C)(N)C(=O)O; Lauroyl = CCCCCCCCCCCC(=O)*; Orn = NCCC[C@H](N)C(=O)O; AEEA = NCCOCCOCC(=O)O; Aib = CC(C)(N)C(=O)O Some results are limits rather than exact numbers.

Chain of hGLP-1R (P43220 24-463): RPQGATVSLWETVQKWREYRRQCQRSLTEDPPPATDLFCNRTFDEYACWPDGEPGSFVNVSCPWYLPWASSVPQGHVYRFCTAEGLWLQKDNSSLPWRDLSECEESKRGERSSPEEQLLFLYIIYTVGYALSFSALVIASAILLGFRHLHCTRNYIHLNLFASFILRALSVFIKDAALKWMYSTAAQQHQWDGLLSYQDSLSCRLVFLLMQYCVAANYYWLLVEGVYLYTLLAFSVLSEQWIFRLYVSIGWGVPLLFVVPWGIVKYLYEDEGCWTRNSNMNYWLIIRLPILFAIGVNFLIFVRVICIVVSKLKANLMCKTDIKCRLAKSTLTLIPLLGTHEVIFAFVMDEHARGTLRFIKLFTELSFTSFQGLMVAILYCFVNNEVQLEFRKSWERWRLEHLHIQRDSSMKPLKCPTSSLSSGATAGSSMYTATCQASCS
T2 sequence (P47871 26-477): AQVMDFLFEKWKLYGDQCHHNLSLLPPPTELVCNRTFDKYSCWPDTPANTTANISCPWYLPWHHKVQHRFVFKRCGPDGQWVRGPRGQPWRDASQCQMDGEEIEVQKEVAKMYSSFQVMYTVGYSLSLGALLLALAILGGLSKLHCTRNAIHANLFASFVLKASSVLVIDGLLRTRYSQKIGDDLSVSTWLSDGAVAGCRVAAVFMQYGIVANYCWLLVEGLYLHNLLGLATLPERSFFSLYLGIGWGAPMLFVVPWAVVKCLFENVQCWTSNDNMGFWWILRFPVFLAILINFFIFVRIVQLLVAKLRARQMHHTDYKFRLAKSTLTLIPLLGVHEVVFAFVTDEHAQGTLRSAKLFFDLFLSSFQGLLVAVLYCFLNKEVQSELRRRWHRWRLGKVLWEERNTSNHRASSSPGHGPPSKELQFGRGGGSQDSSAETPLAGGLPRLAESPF

Regarding `CCCCCCCCCCCC(=O)N[C@@H](CCC(=O)NCCOCCOCC(=O)NCCOCCOCC(=O)NCCCC[C@H](NC(=O)[C@H](CCCN)NC(=O)[C@H](CC(=O)O)NC(=O)[C@H](CC(C)C)NC(=O)[C@](C)(CC(C)C)NC(=O)[C@@H](NC(=O)C(C)(C)NC(=O)[C@H](Cc1ccncc1)NC(=O)[C@H](CC(=O)O)NC(=O)[C@H](CO)NC(=O)[C@@H](NC(=O)[C@](C)(Cc1ccccc1F)NC(=O)[C@@H](NC(=O)CNC(=O)[C@H](CCC(=O)O)NC(=O)C(C)(C)NC(=O)[C@@H](N)Cc1ccc(O)cc1)[C@@H](C)O)[C@@H](C)O)[C@@H](C)CC)C(=O)N[C@@H](C)C(=O)N[C@@H](CCC(N)=O)C(=O)NC(C)(C)C(=O)N[C@@H](CCCCNC(=O)COCCOCCNC(=O)COCCOCCNC(=O)CC[C@H](NC(=O)CCCCCCCCCCC)C(=O)O)C(=O)N[C@@](C)(Cc1ccccc1)C(=O)N[C@H](C(=O)N[C@H](CCC(=O)O)C(=O)N[C@@](C)(Cc1ccc(O)cc1)C(=O)N[C@@H](CC(C)C)C(=O)N[C@H](C(=O)N[C@@H](CCC(=O)O)C(=O)NCC(=O)NCC(=O)N1CCC[C@H]1C(=O)N[C@@H](CO)C(=O)N[C@@H](CO)C(=O)NCC(=O)N[C@@H](C)C(=O)N1CCC[C@H]1C(=O)N1CCC[C@H]1C(=O)N1CCC[C@H]1C(=O)N[C@@H](CO)C(N)=O)[C@@H](C)CC)[C@@H](C)CC)C(=O)O` [Example 430] (H-Y[Aib]EGT[αMePhe(2-F)]TSD[4Pal][Aib]I[αMeL]LD[Orn]K([AEEA-AEEA-γGlu-Lauroyl])AQ[Aib]K([AEEA-AEEA-γGlu-Lauroyl])[αMeF]I[dE][αMeY]LIEGGPSSGAPPPS-NH2), the Emax on hGLP-1R (HEK293, cAMP, 37° C., 0.1% bovine casein and 1.0% human serum albumin, read-out: hGLP-1R Emax, % ± SEM) worked out at 88.5%; on hGLP-1R (setting [1]), 93.1%; at hGIPR (HEK293, cAMP, 37° C., 0.1% bovine casein and 1.0% human serum albumin, read-out: hGIPR Emax, % ± SEM) it was 91.5%. For the same compound, the EC50 at hGLP-1R (cAMP, 37° C., 0.1% bovine casein (no human serum albumin), read-out: hGLP-1R EC50, nM (SEM, n)) was 0.342 nM; at hGIPR (setting [2]) it was 0.0175 nM; on hGIPR (37° C., 0.1% bovine casein and 1.0% human serum albumin, geometric mean (SEM, n), read-out: hGIPR EC50, nM (SEM, n)), 1.09 nM; on hGCGR (setting [3]), above 9950 nM; on hGCGR (cAMP, 0.1% bovine casein and 1.0% human serum albumin, geometric mean (SEM, n), read-out: hGCGR EC50, nM (SEM, n)), above 9950 nM.
On to `CC[C@H](C)[C@H](NC(=O)[C@H](CC(C)C)NC(=O)[C@](C)(Cc1ccc(O)cc1)NC(=O)[C@@H](CCC(=O)O)NC(=O)[C@@H](NC(=O)[C@H](Cc1ccccc1)NC(=O)[C@H](CCC(=O)O)NC(=O)C(C)(C)NC(=O)[C@H](CCC(N)=O)NC(=O)[C@H](C)NC(=O)[C@H](CCCCNC(=O)COCCOCCNC(=O)COCCOCCNC(=O)CCCCCCCCCCCCC(=O)O)NC(=O)[C@H](CCCN)NC(=O)[C@H](CC(=O)O)NC(=O)[C@H](CC(C)C)NC(=O)[C@](C)(CC(C)C)NC(=O)[C@@H](NC(=O)[C@H](CO)NC(=O)[C@H](Cc1ccc(OC)cc1)NC(=O)[C@H](CC(=O)O)NC(=O)[C@H](CO)NC(=O)[C@@H](NC(=O)[C@](C)(Cc1ccccc1F)NC(=O)[C@@H](NC(=O)CNC(=O)[C@H](CCC(=O)O)NC(=O)C(C)(C)NC(=O)[C@@H](N)Cc1ccc(O)cc1)[C@@H](C)O)[C@@H](C)O)[C@@H](C)CC)[C@@H](C)CC)C(=O)N[C@@H](CCCCNC(=O)COCCOCCNC(=O)COCCOCCNC(=O)CCCCCCCCCCCCC(=O)O)C(=O)NCC(=O)NCC(=O)N1CCC[C@H]1C(=O)N[C@@H](CO)C(=O)N[C@@H](CO)C(=O)NCC(=O)N[C@@H](C)C(=O)N1CCC[C@H]1C(=O)N1CCC[C@H]1C(=O)N1CCC[C@H]1C(=O)N[C@@H](CO)C(N)=O` [Example 266] (H-Y[Aib]EGT[αMePhe(2-F)]TSDY(Me)SI[αMeL]LD[Orn]K([AEEA-AEEA-C14 diacid])AQ[Aib]EFI[dE][αMeY]LIK([AEEA-AEEA-C14 diacid])GGPSSGAPPPS-NH2), for which the concentration giving a half-maximal response (EC50) was 5.83 nM on hGLP-1R (0.1% bovine casein and 1.0% human serum albumin, 37° C., read-out: hGLP-1R EC50, nM (SEM, n)); 0.0136 nM on hGIPR (setting [2]); above 9950 nM at hGCGR (0.1% bovine casein and 1.0% human serum albumin, geometric mean, read-out: hGCGR EC50, nM (SEM, n)); above 9950 nM at hGCGR (setting [3]). For the same compound, the Emax on hGLP-1R (HEK293, 0.1% bovine casein and 1.0% human serum albumin, 37° C., read-out: hGLP-1R Emax, % ± SEM) was 97.6%; at hGLP-1R (setting [1]), 90.5%; at hGIPR (HEK293, 0.1% bovine casein and 1.0% human serum albumin, 37° C., read-out: hGIPR Emax, % ± SEM), 82.7%; at hGIPR (HEK293, cAMP, 37° C., 0.1% bovine casein, arithmetic mean, read-out: hGIPR Emax, % ± SEM), 93.2%.
Turning to `CC[C@H](C)[C@H](NC(=O)[C@H](CCCN)NC(=O)[C@H](CC(=O)O)NC(=O)[C@H](CC(C)C)NC(=O)[C@](C)(CC(C)C)NC(=O)[C@@H](NC(=O)C(C)(C)NC(=O)[C@H](Cc1ccncc1)NC(=O)[C@H](CC(=O)O)NC(=O)[C@H](CO)NC(=O)[C@@H](NC(=O)[C@](C)(Cc1ccccc1F)NC(=O)[C@@H](NC(=O)CNC(=O)[C@H](CCC(=O)O)NC(=O)C(C)(C)NC(=O)[C@@H](N)Cc1ccc(O)cc1)[C@@H](C)O)[C@@H](C)O)[C@@H](C)CC)C(=O)N[C@@H](C)C(=O)N[C@@H](CCC(N)=O)C(=O)NC(C)(C)C(=O)N[C@@H](CCC(=O)O)C(=O)N[C@@H](Cc1ccccc1)C(=O)N[C@H](C(=O)N[C@@H](CCCCNC(=O)COCCOCCNC(=O)COCCOCCNC(=O)COCCOCCNC(=O)CC[C@H](NC(=O)CCCCCCCCCOc1ccc(C(=O)O)cc1)C(=O)O)C(=O)N[C@@](C)(Cc1ccc(O)cc1)C(=O)N[C@@H](CC(C)C)C(=O)N[C@H](C(=O)N[C@@H](CCCCNC(=O)COCCOCCNC(=O)COCCOCCNC(=O)COCCOCCNC(=O)CC[C@H](NC(=O)CCCCCCCCCOc1ccc(C(=O)O)cc1)C(=O)O)C(=O)NCC(=O)NCC(=O)N1CCC[C@H]1C(=O)N[C@@H](CO)C(=O)N[C@@H](CO)C(=O)NCC(=O)N[C@@H](C)C(=O)N1CCC[C@H]1C(=O)N1CCC[C@H]1C(=O)N1CCC[C@H]1C(=O)N[C@@H](CO)C(N)=O)[C@@H](C)CC)[C@@H](C)CC` [Example 345], the Emax on hGLP-1R (HEK293, read-out: hGLP-1R Emax, % ± SEM, cAMP, 37° C., 0.1% bovine casein and 1.0% human serum albumin) came out at 110%; on hGLP-1R (HEK293, read-out: hGLP-1R Emax, % ± SEM, cAMP, 37° C., 0.1% bovine casein, arithmetic mean), 105%; on hGIPR (HEK293, read-out: hGIPR Emax, % ± SEM, cAMP, 37° C., 0.1% bovine casein and 1.0% human serum albumin), 86.8%; on hGIPR (HEK293, read-out: hGIPR Emax, % ± SEM, cAMP, 37° C., 0.1% bovine casein, arithmetic mean) it was 98.9%. For the same compound, the EC50 was 0.285 nM on hGLP-1R (hGLP-1R EC50, nM (SEM, n), cAMP, 37° C., 0.1% bovine casein (no human serum albumin)); 0.0147 nM on hGIPR (hGIPR EC50, nM (SEM, n), 37° C., 0.1% bovine casein (no human serum albumin), geometric mean); above 9950 nM at hGCGR (hGCGR EC50, nM (SEM, n), cAMP, 0.1% bovine casein (no human serum albumin), geometric mean); above 9950 nM at hGCGR (hGCGR EC50, nM (SEM, n), cAMP, 0.1% bovine casein and 1.0% human serum albumin, geometric mean (SEM, n)).

As usually defined, the Emax is the size of the effect at its maximum, as opposed to the concentration needed. A word on the EC50: it is the concentration at which the effect is half-maximal.
